The numbers were not newly measured in patent US20110104279A1, “HEALING POWDER AND METHOD OF USE THEREOF” (priority 2009, published 2011), which cites them from elsewhere.

Molecules are shown by their SMILES.

The test system of series [1] is full thickness wounds in the backs of pigs. The settings on record: wounds 25 mm square, 9 mm deep, packed and covered with Opsite.
Series [2] concerns acute mediastinitis wounds. To be noted: 19 patients, wounds packed every 3 to 4 hours.

Take `N=C(NCCCCCCNC(=N)NC(=N)Nc1ccc(Cl)cc1)NC(=N)Nc1ccc(Cl)cc1.O=C(O)[C@H](O)[C@@H](O)[C@H](O)[C@H](O)CO.O=C(O)[C@H](O)[C@@H](O)[C@H](O)[C@H](O)CO` [chlorhexidine gluconate]: the “wound healing compared with wounds covered with Opsite alone” value in series [1] is on record as “delayed healing”.

Turning to `OC[C@H]1O[C@@](CO)(O[C@H]2O[C@H](CO)[C@@H](O)[C@H](O)[C@H]2O)[C@@H](O)[C@@H]1O` [granular sugar, sucrose], the “average time of treatment to near complete debridement, granulation tissue formation and eradication of bacterial infection” value in series [2] is 7.6 days.
